According to patent US8536332B2, “Modulating signal transduction pathways with substituted pyridol [2,3-b] pyrazines” (Aeterna Zentaris GmbH, priority 2007, dated 2013):

**Q.** Which melting point does the source give for COc1ccc(-c2ccc3ncc(NC(=O)Nc4ccc(C)cc4)nc3n2)cc1OC [Compound 578, 1-[6-(3,4-Dimethoxy-phenyl)-pyrido[2,3-b]pyrazin-3-yl]-3-p-tolyl-urea] here?
**A.** 263 to 266 °C

**Q.** With CCNC(=S)Nc1cnc2ccc(-c3cc(OC)c(OC)c(OC)c3)nc2n1 [Compound 650, 1-Ethyl-3-[6-(3,4,5-trimethoxy-phenyl)-pyrido[2,3-b]pyrazin-3-yl]-thiourea] as the compound, how does the melting point read?
**A.** 218 to 219 °C

**Q.** For CCNC(=O)Nc1ccc2ncc(-c3ccc(C(=O)OC)cc3)nc2n1 [Compound 132, 4-[6-(3-Ethyl-ureido)-pyrido[2,3-b]pyrazin-3-yl]-benzoic acid methyl ester], which melting point is on record?
**A.** 260 °C

**Q.** For CCNC(=O)Nc1ccc2ncc(-c3ccc(-c4ccccc4)cc3F)nc2n1 [Compound 84, 1-Ethyl-3-[3-(3-fluoro-biphenyl-4-yl)-pyrido[2,3-b]pyrazin-6-yl]-urea], which melting point is on record?
**A.** 263.9 to 265.6 °C

**Q.** With CCNC(=S)Nc1ccc2ncc(Nc3cc(Cl)cc(Cl)c3)nc2n1 [Compound 443, 1-[3-(3,5-Dichloro-phenylamino)-pyrido[2,3-b]pyrazin-6-yl]-3-ethyl-thiourea] as the compound, how does the melting point read?
**A.** 270 °C

**Q.** For CCNC(=S)Nc1ccc2ncc(Nc3ccccc3O)nc2n1 [Compound 149, 1-Ethyl-3-[3-(2-hydroxy-phenylamino)-pyrido[2,3-b]pyrazin-6-yl]-thiourea], which melting point is on record?
**A.** 280 °C

**Q.** For CCNC(=O)Nc1ccc2ncc(-c3cccc(OCc4cc(OC)cc(OC)c4)c3)nc2n1 [Compound 121, 1-{3-[3-(3,5-Dimethoxy-benzyloxy)-phenyl]-pyrido[2,3-b]pyrazin-6-yl}-3-ethyl-urea], which melting point is on record?
**A.** 212 to 217 °C

**Q.** For COc1ccc(-c2ccc3ncc(NC(=O)NC(C)C)nc3n2)cc1OC [Compound 567, 1-[6-(3,4-Dimethoxy-phenyl)-pyrido[2,3-b]pyrazin-3-yl]-3-isopropyl-urea], which melting point is on record?
**A.** 233 to 236 °C

**Q.** For CCNC(=O)Nc1ccc2ncc(-c3ccc(C)c(F)c3)nc2n1 [Compound 83, 1-Ethyl-3-[3-(3-fluoro-4-methyl-phenyl)-pyrido[2,3-b]pyrazin-6-yl]-urea], which melting point is on record?
**A.** 247.8 to 252.4 °C

**Q.** With CCNC(=S)Nc1cnc2ccc(Nc3ccc(O)cc3)nc2n1 [Compound 198, 1-Ethyl-3-[6-(4-hydroxy-phenylamino)-pyrido[2,3-b]pyrazin-3-yl]-thiourea] as the compound, how does the melting point read?
**A.** 258 °C

**Q.** For CCNC(=O)Nc1cnc2ccc(-c3cccc(OC(C)C)c3)nc2n1 [Compound 177, 1-Ethyl-3-[6-(3-isopropoxy-phenyl)-pyrido[2,3-b]pyrazin-3-yl]-urea], which melting point is on record?
**A.** 234 to 237 °C

**Q.** For CCCNC(=O)Nc1cnc2ccc(-c3ccc(O)c(OC)c3)nc2n1 [Compound 16, 1-[6-(4-Hydroxy-3-methoxy-phenyl)-pyrido[2,3-b]pyrazin-3-yl]-3-propyl-urea], which melting point is on record?
**A.** 220 to 222 °C

**Q.** With CCNC(=O)Nc1cnc2ccc(-c3ccc(C)cc3)nc2n1 [Compound 178, 1-Ethyl-3-(6-p-tolyl-pyrido[2,3-b]pyrazin-3-yl)-urea] as the compound, how does the melting point read?
**A.** 227 to 228 °C

**Q.** For COc1cc(-c2ccc3ncc(NC(=O)Nc4ccc(C#N)cc4)nc3n2)ccc1O [Compound 626, 1-(4-Cyano-phenyl)-3-[6-(4-hydroxy-3-methoxy-phenyl)-pyrido[2,3-b]pyrazin-3-yl]-urea], which melting point is on record?
**A.** 259 to 261 °C

**Q.** For COc1cc(Nc2cnc3ccc(NC(=S)NCC4CCCCC4)nc3n2)cc(OC)c1OC [Compound 696, 1-Cyclohexylmethyl-3-[3-(3,4,5-trimethoxy-phenylamino)-pyrido[2,3-b]pyrazin-6-yl]-thiourea], which melting point is on record?
**A.** 347 °C

**Q.** For CCNC(=O)Nc1cnc2ccc(-c3cccc(N)c3)nc2n1 [Compound 179, 1-[6-(3-Amino-phenyl)-pyrido[2,3-b]pyrazin-3-yl]-3-ethyl-urea], which melting point is on record?
**A.** > 320 °C

**Q.** Which melting point does the source give for Cc1cc(-c2ccc3ncc(NC(=O)NC4CCN(C(=O)C(F)(F)F)CC4)nc3n2)cc(C)c1O [Compound 589] here?
**A.** 251 to 253 °C

**Q.** With CCNC(=O)Nc1cnc2ccc(-c3cc(C)c(OC(C)C)c(C)c3)nc2n1 [Compound 597, 1-Ethyl-3-[6-(4-isopropoxy-3,5-dimethyl-phenyl)-pyrido[2,3-b]pyrazin-3-yl]-urea] as the compound, how does the melting point read?
**A.** 221 °C

**Q.** Which melting point does the source give for COc1ccc(-c2ccc3ncc(NC(=O)NC4CCCCC4)nc3n2)cc1OC [Compound 571, 1-Cyclohexyl-3-[6-(3,4-dimethoxy-phenyl)-pyrido[2,3-b]pyrazin-3-yl]-urea] here?
**A.** 262 to 264 °C

**Q.** Which melting point does the source give for CC(C)Oc1cccc(Nc2cnc3ccc(NC(=O)NC4CC4)nc3n2)c1 [Compound 49, 1-Cyclopropyl-3-[3-(3-isopropoxy-phenylamino)-pyrido[2,3-b]pyrazin-6-yl]-urea] here?
**A.** 134 °C

**Q.** With CCNC(=O)Nc1ccc2ncc(-c3ccc(OP(=O)([O-])[O-])c(OC)c3)nc2n1.[Na+].[Na+] as the compound, how does the melting point read?
**A.** > 350 °C

**Q.** Which melting point does the source give for COc1cc(-c2ccc3ncc(NC(=O)Nc4ccc(N5CCN(C)CC5)cc4)nc3n2)ccc1O [Compound 620, 1-[6-(4-Hydroxy-3-methoxy-phenyl)-pyrido[2,3-b]pyrazin-3-yl]-3-[4-(4-methyl-piperazin-1-yl)-phenyl]-urea] here?
**A.** 207 to 210 °C

**Q.** With CCCOc1ccc(-c2cnc3ccc(NC(=O)NCC)nc3n2)cc1 [Compound 133, 1-Ethyl-3-[3-(4-propoxy-phenyl)-pyrido[2,3-b]pyrazin-6-yl]-urea] as the compound, how does the melting point read?
**A.** 258.7 °C

**Q.** For COc1ccc(-c2ccc3ncc(NC(=O)Nc4ccc(F)cc4)nc3n2)cc1OC [Compound 572, 1-[6-(3,4-Dimethoxy-phenyl)-pyrido[2,3-b]pyrazin-3-yl]-3-(4-fluoro-phenyl)-urea], which melting point is on record?
**A.** 269 to 271 °C

**Q.** With COc1cc(Nc2cnc3ccc(NC(=S)NCc4ccc(C)cc4)nc3n2)cc(OC)c1OC [Compound 698, 1-(4-Methyl-benzyl)-3-[3-(3,4,5-trimethoxy-phenylamino)-pyrido[2,3-b]pyrazin-6-yl]-thiourea] as the compound, how does the melting point read?
**A.** 248 to 250 °C

**Q.** Which melting point does the source give for CCNC(=O)Nc1ccc2ncc(-c3cc(OC)ccc3OC)nc2n1 [Compound 145, 1-[3-(2,5-Dimethoxy-phenyl)-pyrido[2,3-b]pyrazin-6-yl]-3-ethyl-urea] here?
**A.** 207 to 209 °C

**Q.** For CCNC(=O)Nc1cnc2ccc(-c3ccc(OC)cc3)nc2n1 [Compound 11, 1-Ethyl-3-[6-(4-methoxy-phenyl)-pyrido[2,3-b]pyrazin-3-yl]-urea], which melting point is on record?
**A.** 244 °C

**Q.** With COc1cc(Nc2cnc3ccc(NC(=S)NCCN4CCOCC4)nc3n2)cc(OC)c1OC [Compound 703, 1-(2-Morpholin-4-yl-ethyl)-3-[3-(3,4,5-trimethoxy-phenylamino)-pyrido[2,3-b]pyrazin-6-yl]-thiourea] as the compound, how does the melting point read?
**A.** 196 °C

**Q.** With CCNC(=S)Nc1ccc2ncc(Nc3cccc(OC(C)C)c3)nc2n1 [Compound 163, 1-Ethyl-3-[3-(3-isopropoxy-phenylamino)-pyrido[2,3-b]pyrazin-6-yl]-thiourea] as the compound, how does the melting point read?
**A.** 238 °C

**Q.** Which melting point does the source give for CCNC(=O)Nc1ccc2ncc(-c3cccc(OC(F)(F)F)c3)nc2n1 [Compound 118, 1-Ethyl-3-[3-(3-trifluoromethoxy-phenyl)-pyrido[2,3-b]pyrazin-6-yl]-urea] here?
**A.** 239 to 240 °C

**Q.** With CCNC(=O)Nc1ccc2ncc(-c3cncn3C)nc2n1 [Compound 53, 1-Ethyl-3-[3-(3-methyl-3H-imidazol-4-yl)-pyrido[2,3-b]pyrazin-6-yl]-urea] as the compound, how does the melting point read?
**A.** 257 to 259 °C

**Q.** Which melting point does the source give for CCNC(=S)Nc1ccc2ncc(Nc3ccc(O)c(Cl)c3)nc2n1 [Compound 441, 1-[3-(3-Chloro-4-hydroxy-phenylamino)-pyrido[2,3-b]pyrazin-6-yl]-3-ethyl-thiourea] here?
**A.** 220 °C

**Q.** For CCNC(=O)Nc1ccc2ncc(-c3cc(Cl)ccc3OC)nc2n1 [Compound 91, 1-[3-(5-Chloro-2-methoxy-phenyl)-pyrido[2,3-b]pyrazin-6-yl]-3-ethyl-urea], which melting point is on record?
**A.** 254 to 257 °C

**Q.** Which melting point does the source give for CCNC(=O)Nc1ccc2ncc(-c3cc(Cl)c(OS(C)(=O)=O)c(OC)c3)nc2n1 [Compound 37, Methanesulfonic acid 2-chloro-4-[6-(3-ethyl-ureido)-pyrido[2,3-b]pyrazin-3-yl]-6-methoxy-phenyl ester] here?
**A.** 247 to 249 °C

**Q.** For COc1cc(-c2ccc3ncc(NC(=O)Nc4ccccc4)nc3n2)ccc1O [Compound 3, 1-[6-(4-Hydroxy-3-methoxy-phenyl)-pyrido[2,3-b]pyrazin-3-yl]-3-phenyl-urea], which melting point is on record?
**A.** 240 °C

**Q.** For CCNC(=O)Nc1ccc2ncc(-c3cccc(Cl)c3)nc2n1 [Compound 111, 1-[3-(3-Chloro-phenyl)-pyrido[2,3-b]pyrazin-6-yl]-3-ethyl-urea], which melting point is on record?
**A.** 262 to 264 °C

**Q.** For COc1cc(-c2ccc3ncc(NC(=O)NCc4ccccc4)nc3n2)ccc1O [Compound 29, 1-Benzyl-3-[6-(4-hydroxy-3-methoxy-phenyl)-pyrido[2,3-b]pyrazin-3-yl]-urea], which melting point is on record?
**A.** 229 to 231 °C

**Q.** With CCNC(=O)Nc1cnc2ccc(N3CCN(C)CC3)nc2n1 [Compound 227, 1-Ethyl-3-[6-(4-methyl-piperazin-1-yl)-pyrido[2,3-b]pyrazin-3-yl]-urea] as the compound, how does the melting point read?
**A.** 214 to 216 °C

**Q.** For O=C(Nc1ccc(F)cc1)Nc1cnc2ccc(-c3cc(Cl)c(O)c(Cl)c3)nc2n1 [Compound 559, 1-[6-(3,5-Dichloro-4-hydroxy-phenyl)-pyrido[2,3-b]pyrazin-3-yl]-3-(4-fluoro-phenyl)-urea], which melting point is on record?
**A.** 289 to 291 °C

**Q.** Which melting point does the source give for COc1ccc(-c2ccc3ncc(NC(=O)Nc4ccc(N5C(=O)C=CC5=O)cc4)nc3n2)cc1OC [Compound 579, 1-[6-(3,4-Dimethoxy-phenyl)-pyrido[2,3-b]pyrazin-3-yl]-3-[4-(2,5-dioxo-2,5-dihydro-pyrrol-1-yl)-phenyl]-urea] here?
**A.** 279 to 283 °C

**Q.** With CCNC(=S)Nc1ccc2ncc(Nc3ccc(C)c(OC)c3)nc2n1 [Compound 162, 1-Ethyl-3-[3-(3-methoxy-4-methyl-phenylamino)-pyrido[2,3-b]pyrazin-6-yl]-thiourea] as the compound, how does the melting point read?
**A.** 288 °C

**Q.** With CCNC(=S)Nc1cnc2ccc(Nc3ccc(C)c(OC)c3)nc2n1 [Compound 210, 1-Ethyl-3-[6-(3-methoxy-4-methyl-phenylamino)-pyrido[2,3-b]pyrazin-3-yl]-thiourea] as the compound, how does the melting point read?
**A.** 148 °C

**Q.** Which melting point does the source give for CCNC(=O)Nc1ccc2ncc(-c3ccc(OCCCN4CCOCC4)c(OC)c3)nc2n1 [Compound 63, 1-Ethyl-3-{3-[3-methoxy-4-(3-morpholin-4-yl-propoxy)-phenyl]-pyrido[2,3-b]pyrazin-6-yl}-urea] here?
**A.** 225 to 227 °C
